System: plants
Experiment: Test D pre-emergence, other plants of Tables D1 and D3
Format: in vivo
Details: preemergent, 20 DAA
Description: A formulation containing 50 g/L of the test chemical was prepared by dissolving the active ingredient in a mixture of organic solvents and emulsifier, details of which are provided in the table. This formulation was then mixed with a small, variable amount of acetone to aid dissolution, before addition of a 0.2% v/v aqueous solution of an adjuvant, as the aqueous diluent, to form an aqueous spray solution which contains a predetermined concentration of the active ingredient.
This aqueous spray solution was then sprayed onto plants including maize and wheat that had been seed treated with a herbicide safener, after one day's cultivation (for pre-emergence) or after about 12 days' cultivation (for post-emergence). The plants were grown from seeds sown in standard soil, placed in a glasshouse under controlled conditions (at 24/18° C. or 20/16° C., day/night; 16 h light; 65% humidity). After spray application the plants were then grown in a glasshouse under the same conditions and watered twice daily. After 15 d for post-emergence and 20 DAA for pre-emergence the test was evaluated (100=total damage to plant; 0=no damage to plant).

CN1CC(c2cc(C(F)(F)F)n(C)n2)C(C(=O)Nc2ccccc2F)C1=O (racemic) [Compound 9]
0: damage to plant (100=total damage to plant; 0=no damage to plant), ABUTH (rate 15) | damage to plant (100=total damage to plant; 0=no damage to plant), ABUTH (rate 30) | damage to plant (100=total damage to plant; 0=no damage to plant), ABUTH (rate 60) | damage to plant (100=total damage to plant; 0=no damage to plant), ABUTH (rate 130) | damage to plant (100=total damage to plant; 0=no damage to plant), AMARE (rate 15) | damage to plant (100=total damage to plant; 0=no damage to plant), AMARE (rate 30) | damage to plant (100=total damage to plant; 0=no damage to plant), AMARE (rate 500) | damage to plant (100=total damage to plant; 0=no damage to plant), BIDPI (rate 15) | damage to plant (100=total damage to plant; 0=no damage to plant), BIDPI (rate 30) | damage to plant (100=total damage to plant; 0=no damage to plant), BIDPI (rate 60) | damage to plant (100=total damage to plant; 0=no damage to plant), BIDPI (rate 130) | damage to plant (100=total damage to plant; 0=no damage to plant), BIDPI (rate 250) | damage to plant (100=total damage to plant; 0=no damage to plant), BIDPI (rate 500) | damage to plant (100=total damage to plant; 0=no damage to plant), BRAPL (rate 15) | damage to plant (100=total damage to plant; 0=no damage to plant), CYPES (rate 15) | damage to plant (100=total damage to plant; 0=no damage to plant), CYPES (rate 30) | damage to plant (100=total damage to plant; 0=no damage to plant), CYPES (rate 60) | damage to plant (100=total damage to plant; 0=no damage to plant), CYPES (rate 130) | damage to plant (100=total damage to plant; 0=no damage to plant), CYPES (rate 250) | damage to plant (100=total damage to plant; 0=no damage to plant), CYPES (rate 500) | damage to plant (100=total damage to plant; 0=no damage to plant), DIGSA (rate 15) | damage to plant (100=total damage to plant; 0=no damage to plant), ECHCG (rate 15) | damage to plant (100=total damage to plant; 0=no damage to plant), ELEIN (rate 15) | damage to plant (100=total damage to plant; 0=no damage to plant), ELEIN (rate 30) | damage to plant (100=total damage to plant; 0=no damage to plant), ELEIN (rate 60) | damage to plant (100=total damage to plant; 0=no damage to plant), ELEIN (rate 130) | damage to plant (100=total damage to plant; 0=no damage to plant), ELEIN (rate 250) | damage to plant (100=total damage to plant; 0=no damage to plant), ELEIN (rate 500) | damage to plant (100=total damage to plant; 0=no damage to plant), EPHHL (rate 15) | damage to plant (100=total damage to plant; 0=no damage to plant), EPHHL (rate 30) | damage to plant (100=total damage to plant; 0=no damage to plant), EPHHL (rate 60) | damage to plant (100=total damage to plant; 0=no damage to plant), EPHHL (rate 130) | damage to plant (100=total damage to plant; 0=no damage to plant), GLXMA (rate 15) | damage to plant (100=total damage to plant; 0=no damage to plant), GLXMA (rate 30) | damage to plant (100=total damage to plant; 0=no damage to plant), GLXMA (rate 60) | damage to plant (100=total damage to plant; 0=no damage to plant), GLXMA (rate 130) | damage to plant (100=total damage to plant; 0=no damage to plant), GLXMA (rate 250) | damage to plant (100=total damage to plant; 0=no damage to plant), GLXMA (rate 500) | damage to plant (100=total damage to plant; 0=no damage to plant), IPOHE (rate 15) | damage to plant (100=total damage to plant; 0=no damage to plant), IPOHE (rate 30) | damage to plant (100=total damage to plant; 0=no damage to plant), IPOHE (rate 60) | damage to plant (100=total damage to plant; 0=no damage to plant), IPOHE (rate 130) | damage to plant (100=total damage to plant; 0=no damage to plant), IPOHE (rate 250) | damage to plant (100=total damage to plant; 0=no damage to plant), IPOHE (rate 500) | damage to plant (100=total damage to plant; 0=no damage to plant), ORYSA (rate 15) | damage to plant (100=total damage to plant; 0=no damage to plant), ORYSA (rate 30) | damage to plant (100=total damage to plant; 0=no damage to plant), ORYSA (rate 60) | damage to plant (100=total damage to plant; 0=no damage to plant), ORYSA (rate 130) | damage to plant (100=total damage to plant; 0=no damage to plant), ORYSA (rate 250) | damage to plant (100=total damage to plant; 0=no damage to plant), ORYSA (rate 500) | damage to plant (100=total damage to plant; 0=no damage to plant), PANMI (rate 15) | damage to plant (100=total damage to plant; 0=no damage to plant), PANMI (rate 30) | damage to plant (100=total damage to plant; 0=no damage to plant), PANMI (rate 60) | damage to plant (100=total damage to plant; 0=no damage to plant), PANMI (rate 130) | damage to plant (100=total damage to plant; 0=no damage to plant), PANMI (rate 250) | damage to plant (100=total damage to plant; 0=no damage to plant), PANMI (rate 500) | damage to plant (100=total damage to plant; 0=no damage to plant), SETFA (rate 15) | damage to plant (100=total damage to plant; 0=no damage to plant), SETFA (rate 30) | damage to plant (100=total damage to plant; 0=no damage to plant), SETFA (rate 60) | damage to plant (100=total damage to plant; 0=no damage to plant), SIDSP (rate 15) | damage to plant (100=total damage to plant; 0=no damage to plant), SIDSP (rate 30) | damage to plant (100=total damage to plant; 0=no damage to plant), SIDSP (rate 60) | damage to plant (100=total damage to plant; 0=no damage to plant), SIDSP (rate 130) | damage to plant (100=total damage to plant; 0=no damage to plant), SIDSP (rate 250) | damage to plant (100=total damage to plant; 0=no damage to plant), SIDSP (rate 500) | damage to plant (100=total damage to plant; 0=no damage to plant), SORVU (rate 15) | damage to plant (100=total damage to plant; 0=no damage to plant), SORVU (rate 30) | damage to plant (100=total damage to plant; 0=no damage to plant), SORVU (rate 60) | damage to plant (100=total damage to plant; 0=no damage to plant), SORVU (rate 130) | damage to plant (100=total damage to plant; 0=no damage to plant), SORVU (rate 250)
90: damage to plant (100=total damage to plant; 0=no damage to plant), BRAPL (rate 130) | damage to plant (100=total damage to plant; 0=no damage to plant), DIGSA (rate 250) | damage to plant (100=total damage to plant; 0=no damage to plant), ECHCG (rate 130) | damage to plant (100=total damage to plant; 0=no damage to plant), ECHCG (rate 250) | damage to plant (100=total damage to plant; 0=no damage to plant), ECHCG (rate 500) | damage to plant (100=total damage to plant; 0=no damage to plant), SETFA (rate 500)
20: damage to plant (100=total damage to plant; 0=no damage to plant), ECHCG (rate 30)
10: damage to plant (100=total damage to plant; 0=no damage to plant), ABUTH (rate 250) | damage to plant (100=total damage to plant; 0=no damage to plant), ABUTH (rate 500) | damage to plant (100=total damage to plant; 0=no damage to plant), BRAPL (rate 30) | damage to plant (100=total damage to plant; 0=no damage to plant), EPHHL (rate 500)
100: damage to plant (100=total damage to plant; 0=no damage to plant), BRAPL (rate 250) | damage to plant (100=total damage to plant; 0=no damage to plant), BRAPL (rate 500) | damage to plant (100=total damage to plant; 0=no damage to plant), DIGSA (rate 130) | damage to plant (100=total damage to plant; 0=no damage to plant), DIGSA (rate 500)
30: damage to plant (100=total damage to plant; 0=no damage to plant), BRAPL (rate 60)
70: damage to plant (100=total damage to plant; 0=no damage to plant), SETFA (rate 250)
80: damage to plant (100=total damage to plant; 0=no damage to plant), DIGSA (rate 30) | damage to plant (100=total damage to plant; 0=no damage to plant), DIGSA (rate 60) | damage to plant (100=total damage to plant; 0=no damage to plant), ECHCG (rate 60)
50: damage to plant (100=total damage to plant; 0=no damage to plant), SETFA (rate 130)

— patent publication US20220281848A1, “PYRAZOLE-SUBSTITUTED PYRROLIDINONES AS HERBICIDES” (FMC Corporation, priority 2019, published 2022)
